Bridge positions count the residues as written; N and C are the ends. Square brackets hold non-standard residues; d marks the D form. Peptide text beside a SMILES is read from it.
Tests used:
hPADI4 [1] = molecular target: T1, hPADI4 (Homo sapiens, UniProt Q9UM07); experiment: COLDER assay, inhibition of PADI4 at 10 mM CaCl2 (substrate BAEE); assay type: biochemical; conditions: COLDER, 10 mM CaCl2, peptide 10–0.0003 µM
T1 construct: PADI4 (residues 1–663); Avi-Tag (unbiotinylated); made in house; host or cells: E. coli BL21(DE3) without BirA
T1 sequence (Q9UM07 whole entry, the tested form may be a part): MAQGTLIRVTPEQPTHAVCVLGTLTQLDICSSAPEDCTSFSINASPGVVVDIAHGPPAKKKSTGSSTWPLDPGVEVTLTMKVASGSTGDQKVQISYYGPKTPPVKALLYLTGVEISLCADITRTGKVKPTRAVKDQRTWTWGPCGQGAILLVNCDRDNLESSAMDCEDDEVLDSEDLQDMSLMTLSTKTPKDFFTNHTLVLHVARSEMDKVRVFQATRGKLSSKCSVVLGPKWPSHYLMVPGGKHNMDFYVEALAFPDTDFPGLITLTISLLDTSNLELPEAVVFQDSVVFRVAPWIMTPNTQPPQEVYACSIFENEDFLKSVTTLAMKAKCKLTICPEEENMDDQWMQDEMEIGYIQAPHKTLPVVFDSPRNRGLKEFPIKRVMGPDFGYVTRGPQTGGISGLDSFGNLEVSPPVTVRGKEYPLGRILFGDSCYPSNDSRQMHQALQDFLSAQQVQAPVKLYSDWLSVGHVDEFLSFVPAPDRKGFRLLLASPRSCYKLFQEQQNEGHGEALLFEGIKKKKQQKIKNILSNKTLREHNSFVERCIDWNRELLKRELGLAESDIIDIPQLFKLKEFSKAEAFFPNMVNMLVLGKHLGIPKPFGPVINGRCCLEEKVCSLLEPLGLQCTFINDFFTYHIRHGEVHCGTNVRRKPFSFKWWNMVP
Method: (§1) PADI4 activity was assessed using the COLDER assay[43] that measures the formation of urea-containing compounds (e.g. citrulline). The reaction was carried out in a 96-well plate with a final volume of 50 µl. His-PADI4 (50 nM) was incubated with different concentrations of peptides (100 µM to 0.3 nM) in the presence of CaCl2 (from 10 mM to 0.001 mM as specified) for 10 min. The reaction was started by the addition of 10 mM N^α-Benzoyl-L-arginine ethyl ester hydrochloride (BAEE, Merck). After 30 min, the reaction was quenched with EDTA (50 mM final concentration). For colour development, 200 µl of COLDER solution, consisting of 1 volume of solution A (80 mM diacetyl monoxime/2,3-butanedione monoxime (Merck) and 2 mM thiosemicarbazide (Acros Organics)) and 3 volumes of solution B (3 M H3PO4, 6 M H2SO4 and 2 mM NH4Fe(SO4)2) were added to each well and the mixture was heated at 95 °C for 15 min. After cooling to RT, absorbance at 540 nm was measured, and citrulline concentration was determined using a standard curve of citrulline standards. All studies were performed within the linear range of PADI4 activity, and data analysis was performed using Prism GraphPad (Dotmatics). Data are presented as the average ± standard error of the mean from at least two independent replicates.

hPADI4 [2] = molecular target: T1, hPADI4; experiment: COLDER assay, activation of PADI4 (calcium titration at fixed peptide, or peptide titration at 0.1 mM CaCl2); assay type: biochemical; conditions: 30 µM peptide
Method: as §1

[3] = test system: hPADI4 expressing mES cells; experiment: Cytotoxicity by live cell imaging with Incucyte Cytotox Green Dye
Method: Live cell imaging was performed using an Incucyte® imaging system (Sartorius), using Incucyte® Cytotox Green Dye as per the manufacturer’s instructions.
E. Assessment of cytotoxicity by live cell imaging with Incucyte® Cytotox
Green Dye, as a measure for cell death. hPADI4 expressing mES cells treated with 1 µM
Assessment of cytotoxicity by live cell imaging with Incucyte® Cytotox Green Dye, as a read-
vehicle (0.1%), and imaged for 48 h.

HaLo-GFP-mito HeLa cells = experiment: Chloroalkane penetration assay (CAPA); assay type: in vitro ADME; conditions: for CP50: 4 h in Opti-MEM, 37 °C, chase HaLo-Tag TMR ligand 5 µM 15 min, mean ± SEM of three independent experiments; for CP50 at 4 °C relative to 37 °C: peer review response
Method: Following the addition of chloroacetyl-NHS to the N-terminal amino group, Cys(mmt) was selectively deprotected using 1% TFA, 5% triisopropylsilane in DCM (30 min, RT). Peptides were then cyclised on resin using 2% diisopropylethylamine in DMF overnight. Following cyclisation, Lys(ivDde) was deprotected using 2% hydrazine in DMF. The resin was then washed (3 x DCM, 3 x DMF) before on-resin coupling of chloroalkane carboxylic acid was performed on the lysine side chain using Hexafluorophosphate Azabenzotriazole Tetramethyl Uronium / diisopropylethylamine in DMF for 2 h. Global deprotection and purification were then carried out as described above. Chloroalkane carboxylate was synthesised as previously described.
CAPA assays were performed following the protocol published in ref. [51]. In brief, 40,000 HaLo- GFP-mito HeLa cells were seeded in a 96-well plate. Twenty-four hours later, cells were treated with different concentrations of chloroalkane-tagged peptides (100 µM to 200 nM for PADI4_3 and PADI4_3i and 50 µM to 100 nM for PADI4_11 and PADI4_11i) for 4 h in Opti-MEM. Media containing peptides was then removed, and cells were incubated with Opti-MEM (Gibco) for 15 min. After that time, the wash was removed, and cells were chased with HaLo-Tag TMR ligand (5 µM, Promega) in Opti-MEM for 15 min. The ligand was then removed, and cells were incubated with Opti-MEM for 30 min. Cells were then trypsinised, resuspended in phosphate-buffered saline (PBS) with 0.5% FBS and analysed using a benchtop flow cytometer (MACSQuant® VYB Flow cytometer Milteny Biotec). For each well, 10000 GFP positive single cells were analysed (gating workflow shown in Supplementary Fig. 18), and TMR mean fluorescence was normalised against a positive control (cells treated with HaLo-Tag TMR ligand but no peptide) and a negative control (non-treated cells). Analysis was performed using FlowJo (LCC) software and Prism GraphPad (Dotmatics). Data were presented as the average ± standard error of three independent replicates.

hPADI4-stable mES cells = experiment: High content microscopy of citrullinated histone H3 (H3Cit) in hPADI4-stable mES cells; assay type: cell-based, mouse; conditions: KSR/2i 3 h, Fig. S7B
Method: HaLo-GFP-mito HeLa cells were grown in DMEM (Gibco) supplemented with 10% foetal bovine serum (FBS), penicillin/streptomycin (100 µg/ml) and puromycin (1 µg/ml) at 37 °C, 5% CO2. HaLo-GFP-mito HeLa cell line[82] was profiled by short tandem repeat analysis (STR) and tested negative for mycoplasma by the Cell Services Technology Platform at the Francis Crick Institute. E14 –mouse embryonic stem cells (Cambridge Stem Cell Institute, UK) were cultured in plates coated with 1% gelatine in GMEM supplemented with 10% foetal calf serum (FCS) batch-tested for ES cell culture (Gibco), 0.1 mM non-essential amino acids, 2 mM L-glutamine, 1 mM sodium pyruvate, 0.1 mM β-mercaptoethanol and 50 ng/mL leukaemia inhibitory factor (LIF) (ESGRO, Millipore). For PADI4 activation, cells were cultured in GMEM containing 10% knockout serum replacement (KSR, Life Technologies), 1% FCS batch-tested for ES cell culture (Gibco), 0.1 mM non-essential amino acids, L-glutamine, 1 mM sodium pyruvate, 0.1 mM β-mercaptoethanol, 50 ng/mL LIF (ESGRO, Millipore), 1 μM PD0325901 (AxonMedChem) and 3 μM CHIR99021 (AxonMedChem). For the generation of E14 mES stably expressing human PADI4 (hPADI4-stable), human PADI4 cDNA was inserted into ES E14 cells using the piggyBac transposon system. The Gateway system was used to clone human PADI4 into the piggyBac vector using primers PADI4_AttB1_F and PADI4_AttB2_R (Table S4). pPB-CAG-CTRL (empty vector) or pPB-CAG-hPADI4 vectors […] were transfected with the piggyBac transposase (pPBase) expression vector, pCAGPBase […], by lipofection according to the manufacturer’s instructions (Lipofectamine 2000, Invitrogen). E14 cells constitutively expressing the hygromycin resistance gene and human PADI4 were selected and expanded in media containing […] hygromycin.
E14 cells were seeded onto 96-well PerkinElmer cell carrier ultra plates (Phenoplates) coated with 0.1% gelatine, at 25,000 cells per well and grown overnight at 37 °C, 5% CO2. Outer wells were excluded but medium was added to minimise any edge effects. […]

[4] = CAPA, chloroalkane-tagged peptide, 4 °C, flow cytometry, mean ± SEM of two (PADI4_3) or three (PADI4_11) independent experiments
[5] = CAPA, chloroalkane-tagged peptide, flow cytometry

## CC[C@H](C)[C@@H]1NC(=O)[C@H](CCCNC(=N)N)NC(=O)[C@H](Cc2ccc(O)cc2)NC(=O)[C@H](Cc2ccccc2)NC(=O)[C@@H](Cc2ccc(O)cc2)NC(=O)CSC[C@@H](C(=O)NCC(N)=O)NC(=O)[C@H](CCC(N)=O)NC(=O)[C@H](Cc2ccc(O)cc2)NC(=O)[C@H](CC(N)=O)NC(=O)[C@@H]2CCCN2C(=O)[C@H](Cc2ccc(O)cc2)NC(=O)[C@H](Cc2c[nH]c3ccccc23)NC(=O)[C@H](Cc2ccccc2)NC(=O)CNC1=O [PADI4_1] ({CH2CO}-[dY]FYRIGFWYPNYQCG-NH2; thioether N-14)
hPADI4 [1]
  PADI4 inhibition (in words): No PADI4 inhibition was observed
hPADI4 [2]
  change in K50(Ca2+) (in words): little change
hPADI4 [2]; Fig. 4A, COLDER, CaCl2 10–0.003 mM, mean ± SEM of three independent replicates
  K50(Ca2+) of PADI4 in presence of peptide: 0.359 ± 0.026 mM

## N=C(N)NCCC[C@@H]1NC(=O)[C@H](Cc2ccc(O)cc2)NC(=O)[C@H](Cc2c[nH]cn2)NC(=O)[C@H](Cc2c[nH]cn2)NC(=O)[C@H](CC(=O)O)NC(=O)[C@H](CCCNC(=N)N)NC(=O)[C@@H](Cc2ccc(O)cc2)NC(=O)CSC[C@@H](C(=O)NCC(N)=O)NC(=O)[C@H](Cc2ccc(O)cc2)NC(=O)[C@H](CCCCN)NC(=O)[C@@H]2CCCN2C(=O)[C@H](Cc2c[nH]cn2)NC1=O [PADI4_3] ({CH2CO}-[dY]RDHHYRHPKYCG-NH2; thioether N-12)
[3]; 1 µM peptide, imaged for 24h
  cytotoxicity: No cytotoxicity was observed
HaLo-GFP-mito HeLa cells; CAPA at 4C, run 220915, in µM (unit assumed)
  CP50 at 4 °C: 11.21
HaLo-GFP-mito HeLa cells; CAPA at 4C, run 240501, in µM (unit assumed)
  CP50 at 4 °C: 8.235
HaLo-GFP-mito HeLa cells; [4]
  CP50 at 4 °C: 9.7 ± 2.1 µM
HaLo-GFP-mito HeLa cells; [5]
  CP50: 1.4 ± 0.1 µM
HaLo-GFP-mito HeLa cells; CAPA
  CP50 at 4 °C relative to 37 °C: 7 times

## CC(C)C[C@H](NC(=O)[C@H](CCC(N)=O)NC(=O)[C@H](CC(C)C)NC(=O)[C@@H](NC(=O)[C@H](CCC(N)=O)NC(=O)[C@H](CCCNC(=N)N)NC(=O)[C@H](Cc1ccc(O)cc1)NC(=O)[C@H](CCCNC(=N)N)NC(=O)[C@@H]1CSCC(=O)N[C@@H](Cc2ccc(O)cc2)C(=O)N[C@@H](CCC(=O)O)C(=O)N[C@@H](CO)C(=O)N1)C(C)C)C(N)=O [PADI4_11] ({CH2CO}-YESCRYRQVLQL-NH2; thioether N-4)
[3]; 25µM peptide, 48 h
  cytotoxicity, live cell imaging of cell death: not toxic to the cells
HaLo-GFP-mito HeLa cells; [4]
  CP50 at 4 °C: 10.8 ± 4.7 µM
HaLo-GFP-mito HeLa cells; [5]
  CP50: 3.1 ± 1.2 µM
HaLo-GFP-mito HeLa cells; CAPA
  CP50 at 4 °C relative to 37 °C: 4 times

## NC(=O)[C@H](CCCN=C(N)CCl)NC(=O)c1ccccc1 [Cl-amidine, reference compound]
hPADI4-stable mES cells
  mean H3Cit intensity with increasing doses of inhibitor: dose-response read-outs
